Test results as given in patent US20230181553A1, “COMPOSITION FOR HAIR IMPROVEMENT” (Dr. Cherry Inc., priority 2020, published 2023).

Columns and labels:
[1] = test system: PPARγ; set-up: species or system Wistar Rat; conditions: rat, in vivo
Protocol: Next, change in gene expression in a tissue was checked. As a subject, 12 weeks old Wistar Rat (male) was used. Regarding a 2.5 µg/portion administration group, three regions were set on the back from the head to the tail, and each of these regions was divided into two regions on both left and right sides of the spine to set six regions on the back in total. In such an administration group, PG was administered to two portions around the center of each of the six regions. Specifically, in the 2.5 µg/portion administration group (n = 3), 2.5 µg (20 µL) of PG was administered per portion. Besides, regarding a 0.1 µg/portion administration group and a 0.02 µg/portion administration group, two regions were set from the head to the tail, and each of these regions was divided into two regions on both left and right sides of the spine, and thus, four regions in total were set on the back. […]
The collected tissue piece was frozen with liquid nitrogen, and stored at -80° C. […] For gene expression analysis by quantitative PCR, design and synthesis of a gene specific primer and a probe were entrusted to Integrated DNA Technologies, Inc. (Skokie, IL, USA), and an expression level of a target gene was analyzed with Prime Time Gene Expression Master Mix reagent (Integrated DNA Technologies, Inc., Skokie, IL, USA) and a Rotor-Gene Q PCR device (QIAGEN GmbH, Hilden, Germany). […]

[2] = test system: scalp; assay: Change in hair thickness after application of pioglitazone suspension to half side of the scalp with electroporation; type: in vivo, human
Protocol: As pioglitazone, a 15 mg pioglitazone tablet “NP” was used. One pioglitazone tablet was ground in a mortar, and the resultant was suspended in 3 mL of water for injection PL “FUSO” for use. Subjects were three female patients (patients). In each of the patients, lines were extended from both outer canthi toward the head, two points on these lines crossing a line extended between the both ears through the vertex were tattooed with an India ink, and a portion around the marked center was photographed under the same conditions. A suspension of pioglitazone was applied to the entire of half side of the scalp. In order to increase penetration, pioglitazone was caused to penetrate through the skin with META-TDS, Electroporation Machine (CTP-802, Grand Aespio Inc., Korea) at an output of 3 V/6 mA {actually measured value}. This treatment was performed at a frequency of once every two weeks 12 times (namely, for 6 months). The test sites were away from the midline of the head by 51 mm on average on both left and right sides. After 6 months from the start of the treatment (after performing the treatment 12 times), Dermo Prime, dpharris (CHOWIS, Korea) was used to import data of two images of each test site into a computer as digital images, and in each image, three hairs having the largest thickness (6 hairs in two images of each test site) were selected to automatically measure the thickness. An average value of the tested values (hair thickness: mm) was used for graphing. Specifically, assuming that the thickness before the treatment was 100, the thickness after the treatment was indicated as a rate. Regarding a patient group in which the treatment was performed on a half side, a difference between before and after the treatment and a difference between the left and right-side portions were compared.

[3] = test system: white hair; assay: Change in white hair (trichogram) after oral pioglitazone; type: in vivo, human; conditions: oral 15 mg once every day for 6 months
Protocol: As pioglitazone, a 15 mg pioglitazone tablet “NP” was used. Each patient took one tablet containing 15 mg of pioglitazone around 10 o'clock in the morning once every day. Subjects were four patients ([…]). In each of the patients, lines were extended from both outer canthi toward the head, two points on these lines crossing a line extended between the both ears through the vertex were tattooed with an India ink, and a portion around the marked center was photographed under the same conditions. The patient had no white hair in a specific portion at the start, a temporal portion on the line extending between the both ears was tattooed with an Indian ink, and a portion around the marked center was photographed under the same conditions. Pioglitazone was taken continuously for 6 months, and the same test was performed every two months. For trichogram, a portion around the marked center was photographed (Canon Powder Shot […], Tokyo, Japan), and hair within a circle having a diameter of 11 mm (area: 95 mm^2) around the tattooed portion set as a center in an imaging range was photographed in two directions, and the number was visually counted to obtain an average of the two photographs.

[4] = test system: hair cuticle; assay: Hair quality evaluation of hair cuticle by scanning electron microscope; type: in vivo, human
From the text: The hair of the group administered with PG (administered twice a month) of Example 3 was collected, and in consideration of the growing rate (15 mm/month) of the hair of the patient, a portion corresponding to a period 2 months to 3 months (about 2.5 months) before the treatment and a portion corresponding to a period 4 months to 5 months (about 4.5 months) after starting the treatment were collected to be hermetically stored respectively in Ziploc(R). Thereafter, hair of a test site was adhesively fixed on a fixing plate with a resin. The resultant was hermetically stored, and on test day, was subjected to carbon fixation, and a state of hair cuticle was observed by an ordinary method with a scanning electron microscope on the same day. As a negative control, hair of the same patient in a portion not treated (untreated in the half side treatment) was used. Then, a portion of the hair newly grown (on the root side) and an existing portion (on the tip side) were compared with each other. A representative example is illustrated in FIG. 2. The same evaluation was performed on a larger number of patients (three patients[…]) (15 mg of PG, administered twice a month, administration 12 times in total, 6 months). The evaluation was performed 20 days after the final administration based on an electron microscope image in accordance with the following rating. The evaluation was performed by 6 doctors. An average of ratings was obtained. 5: Cuticle is aligned, and is not rough at all. 4: Cuticle is aligned than average, but is slightly rough. 3: Cuticle is aligned averagely. 2: Cuticle is rough than average, and is slightly peeled. […] Cuticle is rough as a whole, and is peeled as a whole.

[5] = treated side relative to untreated side

Compound: CCc1ccc(CCOc2ccc(CC3SC(=O)NC3=O)cc2)nc1 (stereo not drawn) [pioglitazone]
- expression of PPARγ [1]: found to increase
- hair thickness on treated side compared with negative control ([2]; 15 mg tablet suspended in 3 mL water, half side of scalp, once every two weeks 12 times, 1 month to 6 months after treatment, three female patients): increased in the thickness
- change rate of hair thickness on treated side vs change rate in negative control ([2]; half side treatment, 6 months, FIG. 1 lower panel): higher than the change rate obtained in the negative control
- growing rate of hair (particularly anagen-stage hair) ([2]; modification of the scalp with pioglitazone): improvement of a growing rate of hair
- decrease in number of white hairs, number before administration assumed 100 ([3]; n = 3): 23.2%
- decrease of white hair, average ([3]; n = 3): 12.7 hairs/95 mm^2
- change in white hair in shaved portion ([3]; three patients having white hair before the treatment): the white hair was decreased
- hair quality rating, Root ([4]; Treated Side, rating 1-5 (5: cuticle aligned, not rough at all), average of 6 doctors, three patients, 15 mg PG twice a month, 12 times, 20 days after final administration): 3.7
- hair quality rating, Tip ([4]; Treated Side, rating 1-5, average of 6 doctors, three patients, 15 mg PG twice a month, 12 times, 20 days after final administration): 2.6
- state of hair cuticle, newly grown portion (root side) vs tip side ([4]; treated hair, PG twice a month, representative example FIG. 2): the hair quality was obviously improved
- Degree of Improvement, Root [4, 5]: 1.12
- Degree of Improvement, Tip [4, 5]: 1.0
